Source: PubChem BioAssay (NCI)
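These data come from cells grown in 96-well plates and exposed to compound for 48 hours at five concentrations. TGI marks complete inhibition of growth.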

What was measured:
Assay in all cases: growth of human tumour cells (NCI), 48 h
M14 melanoma = tested on: M14 melanoma
PC-3 prostate = tested on: PC-3 prostate
COLO 205 colon = tested on: COLO 205 colon
LOX IMVI melanoma = tested on: LOX IMVI melanoma
NCI-H23 lung = tested on: NCI-H23 lung
SR leukemia = tested on: SR leukemia
SN12C renal = tested on: SN12C renal
RXF 393 renal = tested on: RXF 393 renal
UACC-257 melanoma = tested on: UACC-257 melanoma
IGROV1 ovarian = tested on: IGROV1 ovarian
HOP-62 NSCLC = tested on: HOP-62 NSCLC
RPMI-8226 leukemia = tested on: RPMI-8226 leukemia
NCI-H460 lung = tested on: NCI-H460 lung
CAKI-1 renal = tested on: CAKI-1 renal
MCF7 breast = tested on: MCF7 breast
DU-145 prostate = tested on: DU-145 prostate
T-47D breast = tested on: T-47D breast
BT-549 breast = tested on: BT-549 breast
HCT-116 colon = tested on: HCT-116 colon
MDA-MB-231 breast = tested on: MDA-MB-231 breast
786-0 renal = tested on: 786-0 renal
ACHN renal = tested on: ACHN renal
OVCAR-3 ovarian = tested on: OVCAR-3 ovarian
A498 renal = tested on: A498 renal
MALME-3M melanoma = tested on: MALME-3M melanoma
NCI-H522 lung = tested on: NCI-H522 lung
SNB-19 CNS = tested on: SNB-19 CNS
SK-MEL-2 melanoma = tested on: SK-MEL-2 melanoma
MOLT-4 leukemia = tested on: MOLT-4 leukemia
SK-OV-3 ovarian = tested on: SK-OV-3 ovarian
HCC-2998 colon = tested on: HCC-2998 colon
EKVX NSCLC = tested on: EKVX NSCLC
SK-MEL-28 melanoma = tested on: SK-MEL-28 melanoma
TK-10 renal = tested on: TK-10 renal
MDA-N = tested on: MDA-N
OVCAR-4 ovarian = tested on: OVCAR-4 ovarian
SF-268 CNS = tested on: SF-268 CNS
SF-539 CNS = tested on: SF-539 CNS
CCRF-CEM leukemia = tested on: CCRF-CEM leukemia
U251 CNS = tested on: U251 CNS
HOP-92 NSCLC = tested on: HOP-92 NSCLC
SF-295 CNS = tested on: SF-295 CNS
UACC-62 melanoma = tested on: UACC-62 melanoma
SK-MEL-5 melanoma = tested on: SK-MEL-5 melanoma
HL-60(TB) leukemia = tested on: HL-60(TB) leukemia
NCI-H226 lung = tested on: NCI-H226 lung
HS 578T breast = tested on: HS 578T breast
HCT-15 colon = tested on: HCT-15 colon
UO-31 renal = tested on: UO-31 renal
K-562 leukemia = tested on: K-562 leukemia
KM12 colon = tested on: KM12 colon
SW-620 colon = tested on: SW-620 colon
MDA-MB-435 = tested on: MDA-MB-435
OVCAR-5 ovarian = tested on: OVCAR-5 ovarian
A549 NSCLC = tested on: A549 NSCLC
HT29 colon = tested on: HT29 colon
NCI/ADR-RES ovarian = tested on: NCI/ADR-RES ovarian
SNB-75 CNS = tested on: SNB-75 CNS
OVCAR-8 ovarian = tested on: OVCAR-8 ovarian

Compound: Cc1ccc(C(=O)/C(C#N)=C/Nc2c(C)n(C)n(-c3ccccc3)c2=O)cc1
- TGI (M14 melanoma): > 100 µM
- TGI (PC-3 prostate): > 100 µM
- TGI (COLO 205 colon): > 100 µM
- TGI (LOX IMVI melanoma): > 100 µM
- TGI (NCI-H23 lung): > 100 µM
- TGI (SR leukemia): > 100 µM
- TGI (SN12C renal): > 100 µM
- TGI (RXF 393 renal): > 100 µM
- TGI (UACC-257 melanoma): > 100 µM
- TGI (IGROV1 ovarian): > 100 µM
- TGI (HOP-62 NSCLC): > 100 µM
- TGI (RPMI-8226 leukemia): > 100 µM
- TGI (NCI-H460 lung): > 100 µM
- TGI (CAKI-1 renal): > 100 µM
- TGI (MCF7 breast): > 100 µM
- TGI (DU-145 prostate): > 100 µM
- TGI (T-47D breast): > 100 µM
- TGI (BT-549 breast): > 100 µM
- TGI (HCT-116 colon): > 100 µM
- TGI (MDA-MB-231 breast): > 100 µM
- TGI (786-0 renal): > 100 µM
- TGI (ACHN renal): > 100 µM
- TGI (OVCAR-3 ovarian): > 100 µM
- TGI (A498 renal): > 100 µM
- TGI (MALME-3M melanoma): > 100 µM
- TGI (NCI-H522 lung): > 100 µM
- TGI (SNB-19 CNS): > 100 µM
- TGI (SK-MEL-2 melanoma): > 100 µM
- TGI (MOLT-4 leukemia): > 100 µM
- TGI (SK-OV-3 ovarian): > 100 µM
- TGI (HCC-2998 colon): > 100 µM
- TGI (EKVX NSCLC): > 100 µM
- TGI (SK-MEL-28 melanoma): > 100 µM
- TGI (TK-10 renal): > 100 µM
- TGI (MDA-N): > 100 µM
- TGI (OVCAR-4 ovarian): > 100 µM
- TGI (SF-268 CNS): > 100 µM
- TGI (SF-539 CNS): > 100 µM
- TGI (CCRF-CEM leukemia): > 100 µM
- TGI (U251 CNS): > 100 µM
- TGI (HOP-92 NSCLC): > 100 µM
- TGI (SF-295 CNS): > 100 µM
- TGI (UACC-62 melanoma): > 100 µM
- TGI (SK-MEL-5 melanoma): > 100 µM
- TGI (HL-60(TB) leukemia): > 100 µM
- TGI (NCI-H226 lung): > 100 µM
- TGI (HS 578T breast): > 100 µM
- TGI (HCT-15 colon): > 100 µM
- TGI (UO-31 renal): > 100 µM
- TGI (K-562 leukemia): > 100 µM
- TGI (KM12 colon): > 100 µM
- TGI (SW-620 colon): > 100 µM
- TGI (MDA-MB-435): > 100 µM
- TGI (OVCAR-5 ovarian): > 100 µM
- TGI (A549 NSCLC): > 100 µM
- TGI (HT29 colon): > 100 µM

Compound: Cc1ccc(N=Nc2c(C)c(C#N)c(=S)n(C3OC(CO)C(O)C(O)C3O)c2-c2ccccc2)cc1 (stereo not given)
- TGI (M14 melanoma): 30.4 µM
- TGI (PC-3 prostate): 55.6 µM
- TGI (COLO 205 colon): 57.4 µM
- TGI (LOX IMVI melanoma): 31.2 µM
- TGI (NCI-H23 lung): 40.4 µM
- TGI (SN12C renal): > 100 µM
- TGI (RXF 393 renal): 50.6 µM
- TGI (UACC-257 melanoma): > 100 µM
- TGI (IGROV1 ovarian): > 100 µM
- TGI (HOP-62 NSCLC): 54.2 µM
- TGI (RPMI-8226 leukemia): > 100 µM
- TGI (NCI-H460 lung): > 100 µM
- TGI (NCI/ADR-RES ovarian): > 100 µM
- TGI (CAKI-1 renal): 92.6 µM
- TGI (MCF7 breast): 34.7 µM
- TGI (DU-145 prostate): > 100 µM
- TGI (T-47D breast): 57.2 µM
- TGI (BT-549 breast): 42.1 µM
- TGI (HCT-116 colon): 29 µM
- TGI (MDA-MB-231 breast): > 100 µM
- TGI (786-0 renal): 49.8 µM
- TGI (ACHN renal): > 100 µM
- TGI (OVCAR-3 ovarian): 41 µM
- TGI (A498 renal): 33.2 µM
- TGI (MALME-3M melanoma): 47.7 µM
- TGI (SNB-19 CNS): 48.1 µM
- TGI (SK-MEL-2 melanoma): 45.6 µM
- TGI (MOLT-4 leukemia): 38.9 µM
- TGI (SK-OV-3 ovarian): > 100 µM
- TGI (HCC-2998 colon): > 100 µM
- TGI (SK-MEL-28 melanoma): 43 µM
- TGI (TK-10 renal): 67.6 µM
- TGI (MDA-N): 71.7 µM
- TGI (OVCAR-4 ovarian): > 100 µM
- TGI (SF-268 CNS): 68 µM
- TGI (SF-539 CNS): 48.9 µM
- TGI (CCRF-CEM leukemia): 48.1 µM
- TGI (U251 CNS): 30.8 µM
- TGI (SF-295 CNS): 69.5 µM
- TGI (UACC-62 melanoma): 32 µM
- TGI (SK-MEL-5 melanoma): 23.2 µM
- TGI (HL-60(TB) leukemia): > 100 µM
- TGI (HS 578T breast): 60.4 µM
- TGI (HCT-15 colon): 63.7 µM
- TGI (UO-31 renal): 86.9 µM
- TGI (K-562 leukemia): 83.3 µM
- TGI (KM12 colon): 58.9 µM
- TGI (SW-620 colon): 36.3 µM
- TGI (MDA-MB-435): 43.8 µM
- TGI (OVCAR-5 ovarian): 55.9 µM
- TGI (A549 NSCLC): > 100 µM
- TGI (SNB-75 CNS): 55.2 µM
- TGI (HT29 colon): 89.2 µM

Compound: Cn1nc(S(N)(=O)=O)s/c1=N/C(N)=S
- TGI (M14 melanoma): > 100 µM
- TGI (COLO 205 colon): > 100 µM
- TGI (LOX IMVI melanoma): > 100 µM
- TGI (NCI-H23 lung): > 100 µM
- TGI (SR leukemia): > 100 µM
- TGI (SN12C renal): > 100 µM
- TGI (RXF 393 renal): > 100 µM
- TGI (UACC-257 melanoma): > 100 µM
- TGI (HOP-62 NSCLC): > 100 µM
- TGI (RPMI-8226 leukemia): > 100 µM
- TGI (NCI-H460 lung): > 100 µM
- TGI (NCI/ADR-RES ovarian): > 100 µM
- TGI (CAKI-1 renal): > 100 µM
- TGI (MCF7 breast): > 100 µM
- TGI (DU-145 prostate): > 100 µM
- TGI (T-47D breast): > 100 µM
- TGI (BT-549 breast): > 100 µM
- TGI (HCT-116 colon): > 100 µM
- TGI (MDA-MB-231 breast): > 100 µM
- TGI (786-0 renal): > 100 µM
- TGI (ACHN renal): > 100 µM
- TGI (OVCAR-3 ovarian): > 100 µM
- TGI (A498 renal): > 100 µM
- TGI (MALME-3M melanoma): > 100 µM
- TGI (NCI-H522 lung): > 100 µM
- TGI (SNB-19 CNS): > 100 µM
- TGI (SK-MEL-2 melanoma): > 100 µM
- TGI (MOLT-4 leukemia): > 100 µM
- TGI (SK-OV-3 ovarian): > 100 µM
- TGI (HCC-2998 colon): > 100 µM
- TGI (EKVX NSCLC): > 100 µM
- TGI (SK-MEL-28 melanoma): > 100 µM
- TGI (TK-10 renal): > 100 µM
- TGI (MDA-N): > 100 µM
- TGI (OVCAR-4 ovarian): > 100 µM
- TGI (SF-268 CNS): > 100 µM
- TGI (SF-539 CNS): > 100 µM
- TGI (CCRF-CEM leukemia): > 100 µM
- TGI (U251 CNS): > 100 µM
- TGI (HOP-92 NSCLC): > 100 µM
- TGI (SF-295 CNS): > 100 µM
- TGI (UACC-62 melanoma): > 100 µM
- TGI (SK-MEL-5 melanoma): > 100 µM
- TGI (HL-60(TB) leukemia): > 100 µM
- TGI (NCI-H226 lung): > 100 µM
- TGI (HS 578T breast): > 100 µM
- TGI (HCT-15 colon): > 100 µM
- TGI (UO-31 renal): > 100 µM
- TGI (K-562 leukemia): > 100 µM
- TGI (OVCAR-8 ovarian): > 100 µM
- TGI (KM12 colon): > 100 µM
- TGI (SW-620 colon): > 100 µM
- TGI (MDA-MB-435): > 100 µM
- TGI (OVCAR-5 ovarian): > 100 µM
- TGI (A549 NSCLC): > 100 µM
- TGI (HT29 colon): > 100 µM
